The text below walks through data of patent US10787450B2 (BRISTOL-MYERS SQUIBB COMPANY, priority 2016, dated 2020).

ROCK2, sequence (O75116 whole entry, species assumed): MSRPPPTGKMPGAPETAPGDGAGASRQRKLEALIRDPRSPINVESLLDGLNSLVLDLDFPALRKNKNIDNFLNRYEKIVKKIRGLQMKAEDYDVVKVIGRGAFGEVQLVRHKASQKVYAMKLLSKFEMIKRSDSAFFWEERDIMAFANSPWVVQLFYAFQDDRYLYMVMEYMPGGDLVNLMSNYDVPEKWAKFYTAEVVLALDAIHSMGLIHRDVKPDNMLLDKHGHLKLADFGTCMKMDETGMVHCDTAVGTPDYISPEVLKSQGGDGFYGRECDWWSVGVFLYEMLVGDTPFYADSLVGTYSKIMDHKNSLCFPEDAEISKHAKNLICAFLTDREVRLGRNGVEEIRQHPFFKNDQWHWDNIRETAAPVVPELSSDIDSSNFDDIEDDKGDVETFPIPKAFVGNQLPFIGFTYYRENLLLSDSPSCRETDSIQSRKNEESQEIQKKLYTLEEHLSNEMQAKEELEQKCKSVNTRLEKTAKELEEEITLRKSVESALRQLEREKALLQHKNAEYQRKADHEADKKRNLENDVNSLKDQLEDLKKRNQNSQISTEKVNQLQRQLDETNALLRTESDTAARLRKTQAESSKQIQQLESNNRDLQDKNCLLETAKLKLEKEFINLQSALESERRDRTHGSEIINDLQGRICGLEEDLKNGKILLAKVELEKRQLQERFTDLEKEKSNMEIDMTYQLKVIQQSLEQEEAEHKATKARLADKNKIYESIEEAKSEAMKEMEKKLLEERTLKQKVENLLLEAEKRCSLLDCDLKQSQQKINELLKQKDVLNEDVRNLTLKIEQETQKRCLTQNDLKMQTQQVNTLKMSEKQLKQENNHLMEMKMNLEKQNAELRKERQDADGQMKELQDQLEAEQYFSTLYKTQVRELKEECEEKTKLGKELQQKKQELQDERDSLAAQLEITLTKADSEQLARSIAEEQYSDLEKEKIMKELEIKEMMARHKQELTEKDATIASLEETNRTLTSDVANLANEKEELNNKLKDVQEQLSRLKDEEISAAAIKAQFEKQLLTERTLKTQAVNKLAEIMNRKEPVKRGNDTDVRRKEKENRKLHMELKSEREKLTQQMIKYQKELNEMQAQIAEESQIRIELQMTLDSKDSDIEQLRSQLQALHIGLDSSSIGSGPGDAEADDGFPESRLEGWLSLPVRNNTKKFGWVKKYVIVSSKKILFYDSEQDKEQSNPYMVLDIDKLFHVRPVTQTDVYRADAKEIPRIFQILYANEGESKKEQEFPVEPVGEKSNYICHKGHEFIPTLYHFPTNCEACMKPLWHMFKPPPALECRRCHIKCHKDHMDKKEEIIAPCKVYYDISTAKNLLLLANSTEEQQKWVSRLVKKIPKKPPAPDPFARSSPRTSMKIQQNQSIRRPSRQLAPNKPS

The experiment concerns the target ROCK2 (Homo sapiens (Human), UniProt O75116). The experiment is described as follows: ROCK2 kinase inhibition assay (FITC peptide substrate, LABCHIP 3000 Reader). In kind it is biochemical. The conditions noted are these: 5 μM ATP, 1.5 μM peptide substrate. The essentials:
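IC50 derived by curve fitting of dose-response inhibition, read as separation of phosphorylated from unphosphorylated FITC peptide (1.5 μM) after EDTA stop. Buffer: HEPES pH 7.5, MgCl2, Brij-35, DTT; ATP 5 μM; final DMSO <2%; reaction initiated by Rho kinase addition.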
Regarding `COCCOC(=O)N1CCC2(CC1)CN(c1ccc(-c3cn[nH]c3)cc1)C(=O)N2Cc1cccc(OC)c1` [Example 98, 2-methoxyethyl 3-(4-(1H-pyrazol-4-yl)phenyl)-1-(3-methoxybenzyl)-2-oxo-1,3,8-triazaspiro[4.5]decane-8-carboxylate], the half-maximal inhibitory concentration (IC50) was less than 3 nM.

For `COc1cccc(CN2C(=O)N(c3ccc(-c4cn[nH]c4)cc3)CC23CCN(C(=O)C2CCCC2)CC3)c1` [Example 174, 3-(4-(1H-pyrazol-4-yl)phenyl)-8-(cyclopentanecarbonyl)-1-(3-methoxybenzyl)-1,3,8-triazaspiro[4.5]decan-2-one], the 50% inhibitory concentration (IC50) was less than 3 nM.

Consider `COc1nc(N2CC3(CCN(C(=O)CO)CC3)N(Cc3cccc(F)c3C)C2=O)ccc1-c1cn[nH]c1` [Example 229, 1-(3-fluoro-2-methylbenzyl)-8-(2-hydroxyacetyl)-3-(6-methoxy-5-(1H-pyrazol-4-yl)pyridin-2-yl)-1,3,8-triazaspiro[4.5]decan-2-one], for which the IC50 was less than 3 nM.

As for `COc1cccc(CN2C(=O)N(c3ccc(-c4cn[nH]c4)c(OC)n3)CC23CCN(C2COC2)CC3)c1` [Example 238, 3-(6-methoxy-5-(1H-pyrazol-4-yl)pyridin-2-yl)-1-(3-methoxy-benzyl)-8-(oxetan-3-yl)-1,3,8-triazaspiro [4.5]decan-2-one], the IC50 is less than 3 nM.

`COc1cccc(CN2C(=O)N(c3ccc(-c4cn[nH]c4)c(OC)n3)CC23CCN(CCO)CC3)c1` [Example 146, 8-(2-hydroxyethyl)-3-(6-methoxy-5-(1H-pyrazol-4-yl)pyridin-2-yl)-1-(3-methoxybenzyl)-1,3,8-triazaspiro[4.5]decan-2-one]: the IC50 is less than 3 nM.

As for `CCc1nc(N2CC3(CCN(C(=O)CN(C)C)CC3)N(Cc3cccc(OC)c3)C2=O)ccc1-c1cn[nH]c1` [Example 203, 8-(2-(dimethylamino)acetyl)-3-(6-ethyl-5-(1H-pyrazol-4-yl)pyridin-2-yl)-1-(3-methoxybenzyl)-1,3,8-triazaspiro[4.5]decan-2-one], the concentration for half-maximal inhibition (IC50) is less than 3 nM.

Compound `O=C1N(c2ccc(-c3cn[nH]c3)cc2)CC2(CCOCC2)N1Cc1cc(F)cc(F)c1` [Example 24, 3-(4-(1H-pyrazol-4-yl)phenyl)-1-(3,5-difluorobenzyl)-8-oxa-1,3-diazaspiro[4.5]decan-2-one] registered an IC50 of 3 to 30 nM.

For the compound `COCCN1CCC2(CC1)CN(c1ccc(-c3cn[nH]c3)cn1)C(=O)N2Cc1cccc(OC)c1` [Example 162, 3-(5-(1H-pyrazol-4-yl)pyridin-2-yl)-1-(3-methoxybenzyl)-8-(2-methoxyethyl)-1,3,8-triazaspiro[4.5]decan-2-one], the IC50 was less than 3 nM.

For the compound `COc1cccc(CN2C(=O)N(c3ccc(-c4cn[nH]c4)cc3)CC23CCN(CC(C)O)CC3)c1` (single isomer, unassigned) [Example 139, 3-(4-(1H-pyrazol-4-yl)phenyl)-8-(2-hydroxypropyl)-1-(3-methoxybenzyl)-1,3,8-triazaspiro[4.5]decan-2-one], the IC50 is less than 3 nM.

The compound `COc1cccc(CN2C(=O)N(c3ncc(-c4cn[nH]c4)c(OC)n3)CC23CCN(C(=O)C(C)C)CC3)c1` [Example 215, 8-isobutyryl-3-(4-methoxy-5-(1H-pyrazol-4-yl)pyrimidin-2-yl)-1-(3-methoxybenzyl)-1,3,8-triazaspiro[4.5]decan-2-one] came in with an IC50 of 30 to 250 nM.

On to `COc1cccc(CN2C(=O)N(c3ccc(-c4cn[nH]c4)cc3)CC23CCN(C(=O)C2CCC(F)(F)C2)CC3)c1` (stereo not drawn) [Example 175, 3-(4-(1H-pyrazol-4-yl)phenyl)-8-(3,3-difluorocyclopentane-carbonyl)-1-(3-methoxybenzyl)-1,3,8-triazaspiro[4.5]decan-2-one], for which the half-inhibitory concentration (IC50) was less than 3 nM.

Turning to `COc1cccc(CN2C(=O)N(c3ccc(-c4cn[nH]c4)cc3)CC23CCN(CC2CCC2)CC3)c1` [Example 232, 3-(4-(1H-pyrazol-4-yl)phenyl)-8-(cyclobutyl-methyl)-1-(3-methoxy-benzyl)-1,3,8-triazaspiro [4.5]decan-2-one], the IC50 is less than 3 nM.

Compound `COc1cc(CN2C(=O)N(c3ccc(-c4cn[nH]c4)cc3)CC23CCNCC3)ccc1F` [Example 59, 3-(4-(1H-pyrazol-4-yl)phenyl)-1-(4-fluoro-3-methoxybenzyl)-1,3,8-triazaspiro[4.5]decan-2-one] had a half-maximal inhibitory concentration (IC50) of less than 3 nM.

Turning to `COc1cccc(CN2C(=O)N(c3ccc(-c4cn[nH]c4)cn3)CC23CCN(C(C)=O)CC3)c1` [Example 84, 3-(5-(1H-pyrazol-4-yl)pyridin-2-yl)-8-acetyl-1-(3-methoxybenzyl)-1,3,8-triazaspiro[4.5]decan-2-one], the 50% inhibitory concentration (IC50) was less than 3 nM.

With `COc1cccc(CN2C(=O)N(c3ccc(-c4cn[nH]c4)cc3)CC23CCN(CC2CCC(F)(F)CC2)CC3)c1` [Example 231, 3-(4-(1H-pyrazol-4-yl)phenyl)-8-((4,4-difluorocyclohexyl)methyl)-1-(3-methoxybenzyl)-1,3,8-triazaspiro[4.5]decan-2-one], the IC50 was less than 3 nM.

Compound `CCOC(=O)N1CCC2(CC1)CN(c1ncc(-c3cn[nH]c3)c(OC)n1)C(=O)N2Cc1cccc(OC)c1` [Example 112, ethyl 3-(4-methoxy-5-(1H-pyrazol-4-yl)pyrimidin-2-yl)-1-(3-methoxybenzyl)-2-oxo-1,3,8-triazaspiro[4.5]decane-8-carboxylate] yielded a half-maximal inhibitory concentration (IC50) of 3 to 30 nM.

`O=C1N(c2ccc(-c3cn[nH]c3)cc2)CC2(CCNCC2)N1Cc1cccc(O)c1` [Example 62, 3-(4-(1H-pyrazol-4-yl)phenyl)-1-(3-hydroxybenzyl)-1,3,8-triazaspiro[4.5]decan-2-one] yielded an IC50 of less than 3 nM.

On to `COc1cccc(NC2C(=O)N(c3ccc(-c4cn[nH]c4)cc3)CC23CN(C(=O)C(C)(C)O)C3)c1` (stereo not drawn) [Example 246, 6-(4-(1H-pyrazol-4-yl)phenyl)-2-(2-hydroxy-2-methylpro-panoyl)-8-((3-methoxy-phenyl)amino)-2,6-diazaspiro [3.4]octan-7-one], for which the IC50 is 250 to 3000 nM.

In turn, `COc1cccc(CN2C(=O)N(c3ccc(-c4cn[nH]c4)cn3)CC23CCN(C2COC2)CC3)c1` [Example 237, 3-(5-(1H-pyrazol-4-yl)pyridin-2-yl)-1-(3-methoxy-benzyl)-8-(oxetan-3-yl)-1,3,8-triazaspiro [4.5]decan-2-one] showed an IC50 of less than 3 nM.

Consider `CCc1nc(N2CC3(CCN(C(=O)OC)CC3)N(Cc3cc(F)cc(OC)c3)C2=O)ccc1-c1cn[nH]c1` [Example 107, methyl 3-(6-ethyl-5-(1H-pyrazol-4-yl)pyridin-2-yl)-1-(3-fluoro-5-methoxybenzyl)-2-oxo-1,3,8-triazaspiro[4.5]decane-8-carboxylate], for which the IC50 is less than 3 nM.

For the compound `COc1cccc(CN2C(=O)N(c3ccc(-c4cn[nH]c4)cc3)CC23CCN(C(=O)[C@@H](C)O)CC3)c1` [Example 178, (R)-3-(4-(1H-pyrazol-4-yl)phenyl)-8-(2-hydroxypropanoyl)-1-(3-methoxybenzyl)-1,3,8-triazaspiro[4.5]decan-2-one], the concentration for half-maximal inhibition (IC50) was less than 3 nM.

As to `COc1cccc(NC2C(=O)N(c3ccc(-c4cn[nH]c4)cc3)CC23CCN(C(=O)CO)CC3)c1` (stereo not drawn) [Example 250, 2-(4-(1H-pyrazol-4-yl)phenyl)-8-(2-hydroxy-acetyl)-4-((3-methoxy-phenyl)amino)-2,8-diazaspiro [4.5]decan-3-one], the half-inhibitory concentration (IC50) lay in the range of 250 to 3000 nM.

The compound `COc1nc(N2CC3(CCN(C(=O)CCN4CCCC4=O)CC3)N(Cc3cccc(F)c3C)C2=O)ccc1-c1cn[nH]c1` [Example 227, 1-(3-fluoro-2-methylbenzyl)-3-(6-methoxy-5-(1H-pyrazol-4-yl)pyridin-2-yl)-8-(3-(2-oxopyrrolidin-1-yl)propanoyl)-1,3,8-triazaspiro[4.5]decan-2-one] returned an IC50 of less than 3 nM.

Take `COC(=O)N1CCC2(CC1)CN(c1ccc(-c3cn[nH]c3)cc1)C(=O)N2Cc1cccc(OC)c1` [Example 94, Methyl 3-(4-(1H-pyrazol-4-yl)phenyl)-1-(3-methoxybenzyl)-2-oxo-1,3,8-triazaspiro[4.5]decane-8-carboxylate]: the IC50 is less than 3 nM.

As for `COc1cc(F)cc(CN2C(=O)N(c3ccc(-c4cn[nH]c4)cc3)CC23CCN(C(=O)C2(C)COC2)CC3)c1` [Example 193, 33-(4-(1H-pyrazol-4-yl)phenyl)-1-(3-fluoro-5-methoxybenzyl)-8-(3-methyloxetane-3-carbonyl)-1,3,8-triazaspiro[4.5]decan-2-one], the half-maximal inhibitory concentration (IC50) is less than 3 nM.

On to `COCC(=O)N1CCC2(CC1)CN(c1ccc(-c3cn[nH]c3)c(OC)n1)C(=O)N2Cc1cccc(OC)c1` [Example 219, 3-(6-methoxy-5-(1H-pyrazol-4-yl)pyridin-2-yl)-8-(2-methoxyacetyl)-1-(3-methoxybenzyl)-1,3,8-triazaspiro[4.5]decan-2-one], for which the half-inhibitory concentration (IC50) is less than 3 nM.

The compound `CCOC(=O)N1CCC2(CC1)CN(c1ccc(-c3cn[nH]c3)cn1)C(=O)N2Cc1cccc(OC)c1` [Example 110, ethyl 3-(5-(1H-pyrazol-4-yl)pyridin-2-yl)-1-(3-methoxybenzyl)-2-oxo-1,3,8-triazaspiro[4.5]decane-8-carboxylate] had an IC50 of 30 to 250 nM.

In the case of `CCc1nc(N2CC3(CCN(C(=O)C(C)(C)O)CC3)N(Cc3cccc(OC)c3)C2=O)ccc1-c1cn[nH]c1` [Example 205, 3-(6-ethyl-5-(1H-pyrazol-4-yl)pyridin-2-yl)-8-(2-hydroxy-2-methylpropanoyl)-1-(3-methoxybenzyl)-1,3,8-triazaspiro[4.5]decan-2-one], the IC50 fell in the range of 3 to 30 nM.

Compound `CC(=O)N1CCC2(CC1)CN(c1ccc(-c3cn[nH]c3)cc1)C(=O)N2Cc1cccc(F)c1F` [Example 77, 3-(4-(1H-pyrazol-4-yl)phenyl)-8-acetyl-1-(2,3-difluorobenzyl)-1,3,8-triazaspiro[4.5]decan-2-one] showed a 50% inhibitory concentration (IC50) of 30 to 250 nM.

`COc1cccc(CN2C(=O)N(c3ccc(-c4cn[nH]c4)cn3)CC23CCN(CCC(F)(F)F)CC3)c1` [Example 133, 3-(5-(1H-pyrazol-4-yl)pyridin-2-yl)-1-(3-methoxybenzyl)-8-(3,3,3-trifluoropropyl)-1,3,8-triazaspiro[4.5]decan-2-one] displayed an IC50 of 3 to 30 nM.
